According to PubChem BioAssay (NCI):
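Five concentrations, 48 hours, 96-well plates. Here, GI50 denotes the concentration required for 50% inhibition of growth. The concentration for full growth arrest is given as TGI.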

Experiments:
Experiment in all cases: NCI tumour cell line growth inhibition, 48 h; in the data active = GI50 below about 0.43 µM; inactive = the rest
[1] = test system: IGROV1 ovarian
[2] = test system: OVCAR-4 ovarian
[3] = test system: SK-MEL-2 melanoma
[4] = test system: A498 renal
[5] = test system: HS 578T breast
[6] = test system: SK-OV-3 ovarian
[7] = test system: SK-MEL-5 melanoma
[8] = test system: SW-620 colon
[9] = test system: HCT-15 colon
[10] = test system: UO-31 renal
[11] = test system: SNB-19 CNS
[12] = test system: UACC-62 melanoma
[13] = test system: OVCAR-5 ovarian
[14] = test system: KM12 colon
[15] = test system: SK-MEL-28 melanoma
[16] = test system: RXF 393 renal
[17] = test system: M14 melanoma
[18] = test system: HOP-92 NSCLC
[19] = test system: HCC-2998 colon
[20] = test system: T-47D breast
[21] = test system: ACHN renal
[22] = test system: SR leukemia
[23] = test system: HOP-62 NSCLC
[24] = test system: LOX IMVI melanoma
[25] = test system: SF-295 CNS
[26] = test system: NCI-H460 lung
[27] = test system: TK-10 renal
[28] = test system: U251 CNS
[29] = test system: K-562 leukemia
[30] = test system: MALME-3M melanoma
[31] = test system: MDA-MB-435
[32] = test system: CCRF-CEM leukemia
[33] = test system: MCF7 breast
[34] = test system: HCT-116 colon
[35] = test system: SN12C renal
[36] = test system: NCI-H522 lung
[37] = test system: PC-3 prostate
[38] = test system: 786-0 renal
[39] = test system: SNB-75 CNS
[40] = test system: SF-539 CNS
[41] = test system: COLO 205 colon
[42] = test system: OVCAR-8 ovarian
[43] = test system: HL-60(TB) leukemia
[44] = test system: NCI/ADR-RES ovarian
[45] = test system: DU-145 prostate
[46] = test system: UACC-257 melanoma
[47] = test system: HT29 colon
[48] = test system: MDA-MB-231 breast
[49] = test system: MOLT-4 leukemia
[50] = test system: CAKI-1 renal
[51] = test system: SF-268 CNS
[52] = test system: OVCAR-3 ovarian
[53] = test system: A549 NSCLC
[54] = test system: EKVX NSCLC
[55] = test system: NCI-H226 lung
[56] = test system: BT-549 breast
[57] = test system: NCI-H23 lung
[58] = test system: MDA-MB-468 breast
[59] = test system: RPMI-8226 leukemia

C/C(=N\N=C\c1ccc(Cl)c([N+](=O)[O-])c1)c1ccc2c(c1)Nc1ccccc1S2
> 100 µM: TGI [1] | TGI [2] | TGI [3] | TGI [4] | TGI [6] | TGI [7] | TGI [8] | TGI [9] | TGI [10] | TGI [12] | TGI [13] | TGI [14] | TGI [15] | TGI [17] | TGI [20] | TGI [21] | TGI [22] | TGI [24] | TGI [29] | TGI [31] | TGI [32] | TGI [34] | TGI [35] | TGI [36] | TGI [38] | TGI [41] | TGI [42] | TGI [43] | TGI [45] | TGI [46] | TGI [47] | TGI [48] | TGI [49] | TGI [50] | TGI [51] | TGI [53] | TGI [54] | TGI [59]
41.1 µM: TGI [30]
20 µM: TGI [26]
23.3 µM: TGI [37]
39.3 µM: TGI [57]
53.6 µM: TGI [11]
74.5 µM: TGI [40]
62.3 µM: TGI [5]
30 µM: TGI [33]
59 µM: TGI [16]
19.4 µM: TGI [19]
41.3 µM: TGI [23]
5.66 µM: TGI [58]
94.4 µM: TGI [27]
61 µM: TGI [18]
52.4 µM: TGI [28]
41.9 µM: TGI [55]
22.5 µM: TGI [52]
inactive: GI50 [1] 17.7 µM | GI50 [2] 4.03 µM | GI50 [3] 43.2 µM | GI50 [4] 31 µM | GI50 [5] 7.56 µM | GI50 [6] 37 µM | GI50 [7] 7.91 µM | GI50 [8] 3.56 µM | GI50 [9] 9.1 µM | GI50 [10] 78.2 µM | GI50 [11] 15.8 µM | GI50 [12] 15.1 µM | GI50 [13] > 100 µM | GI50 [14] 9.7 µM | GI50 [15] 17.8 µM | GI50 [16] 15.3 µM | GI50 [17] 72.4 µM | GI50 [18] 12.2 µM | GI50 [19] 5.08 µM | GI50 [20] 6.56 µM | GI50 [21] 14.4 µM | GI50 [22] 3.49 µM | GI50 [23] 8.03 µM | GI50 [24] 24.8 µM | GI50 [25] 7.73 µM | GI50 [26] 3.38 µM | GI50 [27] 18 µM | GI50 [28] 7.43 µM | GI50 [29] 5.37 µM | GI50 [30] 10.9 µM | GI50 [31] 14.4 µM | GI50 [32] 4.12 µM | GI50 [33] 3.19 µM | GI50 [34] 4.44 µM | GI50 [35] 44.3 µM | GI50 [36] 11.6 µM | GI50 [37] 3 µM | GI50 [38] 26.5 µM | GI50 [39] 15.7 µM | GI50 [40] 18.5 µM | GI50 [41] 36.1 µM | GI50 [42] 6.09 µM | GI50 [43] 16.9 µM | GI50 [44] 5.22 µM | GI50 [45] 3.76 µM | GI50 [46] 9.51 µM | GI50 [47] 4.26 µM | GI50 [48] 14.3 µM | GI50 [49] 9.98 µM | GI50 [50] 13.7 µM | GI50 [51] 23.8 µM | GI50 [52] 4.46 µM | GI50 [53] 12.2 µM | GI50 [54] 5.85 µM | GI50 [55] 8.48 µM | GI50 [56] 17.1 µM | GI50 [57] 6.83 µM | GI50 [58] 1.58 µM | GI50 [59] 4.27 µM
91.8 µM: TGI [56]
53.1 µM: TGI [44]
93.5 µM: TGI [39]
65.3 µM: TGI [25]
